Measured values reported in paper PMC9584815, “The aldolase inhibitor aldometanib mimics glucose starvation to activate lysosomal AMPK” (Nature Metabolism, 2022).
Numbering of substitutions follows the chain as printed.

Tests used:
[1] = molecular target: T1, rabbit aldolase (ALDOA) (Oryctolagus cuniculus, UniProt P00883); assay: SPR (CM5 chip, Biacore 8K); also MS adduct on Lys230 and enzymatic inhibition (IC50 about […]); type: binding
T1 construct: rabbit aldolase (ammonium sulfate precipitated; A8811)
T1 sequence (P00883 2-364): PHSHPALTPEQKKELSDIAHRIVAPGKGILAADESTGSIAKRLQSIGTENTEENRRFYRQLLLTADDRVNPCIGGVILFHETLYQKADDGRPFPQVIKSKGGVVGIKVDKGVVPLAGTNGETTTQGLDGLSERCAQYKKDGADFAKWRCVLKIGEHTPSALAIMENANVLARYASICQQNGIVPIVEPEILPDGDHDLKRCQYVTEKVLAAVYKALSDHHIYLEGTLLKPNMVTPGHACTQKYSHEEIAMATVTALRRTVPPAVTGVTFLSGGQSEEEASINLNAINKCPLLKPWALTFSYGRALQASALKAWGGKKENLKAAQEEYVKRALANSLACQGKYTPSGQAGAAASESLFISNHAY

[2] = molecular target: T2, ALDOA (Homo sapiens, UniProt P04075); assay: aldolase/TPI/GPDH-coupled NADH assay; type: biochemical
T2 construct: full-length, His-tagged, bacterially expressed and purified
T2 sequence (P04075 2-364): T1 sequence (P00883 2-364) with H2Y, S3Q, H4Y, Y243F, V267I, I358V

Kd [1]: ~20 µM
IC50 [2]: ~50 µM
Compound: CCCCCCCCCCCCCCCCn1cc[n+](Cc2c(Cl)cccc2Cl)c1C [LXY-05-029, aldometanib]
